Data set [1] has as its system gastric acid secretion (histamine-stimulated). The data set is described as follows: Effects on Gastric Acid Secretion of Anesthesia Fistula Rat by Histamine. It is filed as in vivo, rat (male SD). As to conditions: 30 mg/kg, histamine infusion, acid output 1 to 4 hours after administration. On the procedure:
The aggressive factor inhibition action was evaluated from the effects on the gastric acid secretion of anesthesia fistula rats by histamine, while the protective factor potentiation action was evaluated from the effects observed in a hydrochloric acid-ethanol ulcer model. In the Tables, the column of test compounds indicates Example numbers where the compounds are prepared. Male SD rats (Japan Charles River Co., Ltd.) each weighing 180 to 200 g were fasted for 24 hours before celiotomy with etherrization. A feeding tube (fr. 3.5) for injecting test medicines was inserted into the duodenum, and the pylorus was ligatured. A polyethylene tube (inner diameter: 7 mm) was used in the anterior stomach and gastric fistula was performed. After washing the inside of the stomach with heated physiological salt solution (37° C.) several times, the body was closed. A tube with a fin was inserted into the caudal vein and was fastened with a tape and it was connected to a infusion pump (Harvard). The rats were enclosed in a KN Ballman II cage (Natsume Seisakusho). Gastric juice flowed from the fistula was collected with a […] one hour. Starting form one hour after the operation, histamine was continuously injected at a rate of 1.4 ml/hour through the caudal vein. Then, test compounds suspended in 0.5% sodium caboxy methyl cellulose (Na-CMC) were administered one hour after the start of the histamine injection. The gastric juice thus extracted in a period from one hour after the administration of the chemical to four hours after that was titrated by using an automatic titration aparatus (Kyoto Electronic) with 0.1N NaOH to adjust pH 7, and the quantity of the gastric juice was measured to obtain the total acid output. […] [formula]

Data set [2] has as its system ulcer formation caused by hydrochloric acid-ethanol. The data set is described as follows: Hydrochloric Acid-Ethanol Ulcer Test. The format is in vivo, rat (male SD). The note with it: 100 mg/kg, oral, 30 minutes before hydrochloric acid-ethanol; rat. On the procedure:
The aggressive factor inhibition action was evaluated from the effects on the gastric acid secretion of anesthesia fistula rats by histamine, while the protective factor potentiation action was evaluated from the effects observed in a hydrochloric acid-ethanol ulcer model. In the Tables, the column of test compounds indicates Example numbers where the compounds are prepared.
Male SD rats each weighing 170 to 190 g were fasted for 24 hours, and 1 ml of 150 mM hydrochloric acid-60% ethanol was orally administered to each rat. After one hour, rats were clubbed to death, and the stomach was extracted. 10 ml of 2% formalin solution was applied to the stomach for fixing for 10 minutes. The length (mm) of the injuries in the tunica mucosa taken place in the glandular stomach was measured under a stereoscopic microscope. The total length of the injuries of the individual was taken as the ulcer index.
Test compounds or control (1% Na-CMC) were orally administered in an amount of 0.5 ml/100 g, 30 minutes before the administration of hydrochloric acid-ethanol.

The subject of data set [3] is ICR:Crj 5 week old male mice. The data set is described as follows: Toxicity test, repeated oral administration for 14 days. The format is in vivo, mouse (ICR:Crj. The note with it: 500 mg/kg/day. On the procedure:
(§1) The compounds according to Examples 2, 7, 8 and 12 were respectively suspended in 3% gum arabic solution and continuously, forcedly and orally administrated to three ICR:Crj 5 week old male mice for 14 days at a dose of 500 mg/kg/day.

Data set [4] is described as follows: Acute toxicity test by oral administration. The format is in vivo. As to the method:
as §1

Molecules are shown by their SMILES.

A word on the LD50: it is the dose at which mortality reaches 50%. A higher LD50 goes with lower toxicity.

Take `CN/C(=N/CCSCc1nc[nH]c1C)NC#N` [Cimetidine, reference compound]: the “Gastric acid secretion inhibition effect (%)” value in data set [1] is given as 32.3%. Further, the “Ulcer Inhibition Rate(%)” value in data set [2] is reported as 22.7%.

For the compound `O=C(CS(=O)(=O)CCO)NCCCOc1cccc(CN2CCCCC2)c1` [Example 7, N-[3-[3-(piperidinomethyl)phenoxy]propyl]-2-(2-hydroxyethylsulfonyl)acetamide], in data set [1], the “Gastric acid secretion inhibition effect (%)” value is 59.4%. For the same compound, the death entry in data set [3] is “No rat died”.

With `O=C(CSCCO)NCCCOc1cccc(CN2CCCCC2)c1` [Example 2, N-[3-[3-(piperidinomethyl)phenoxy]propyl]-2-(2-hydroxyethyl-1-thio)acetamide], in data set [1], the “Gastric acid secretion inhibition effect (%)” value was determined as 79.5%. The “Ulcer Inhibition Rate(%)” value in data set [2] came to 72.5%. The death result in data set [3] is reported as “No rat died”. In addition, the LD50 in data set [4] (mouse, in vivo, po) came to 2380 mg/kg.

With `O=C(CO)NCCCOc1cccc(CN2CCCCC2)c1` [Roxatidine, reference compound], the “Gastric acid secretion inhibition effect (%)” value in data set [1] turned out to be 68.8%. Moreover, the “Ulcer Inhibition Rate(%)” value in data set [2] is on record as 69.4%. Further, the LD50 value in data set [4] (acute, oral administration) amounted to 755 mg/kg.

Take `O=C(CSCCO)NCCCOc1cccc(CN2CCCC2)c1` [Example 8, N-[3-[3-(1-pyrrolidinylmethyl)phenoxy]propyl]-2-(2-hydroxyethyl-1-thio)acetamide]: the “Gastric acid secretion inhibition effect (%)” value in data set [1] amounted to 70.9%. In data set [3], the death result is “No rat died”.

On to `CC(=O)OCCSCC(=O)NCCCOc1cccc(CN2CCCC2)c1` [Example 12, N-[3-[3-(1-pirrolidinylmethyl)phenoxy]propyl]-2-(2-acetoxyethyl-1-thio)acetamide], for which the “Gastric acid secretion inhibition effect (%)” value in data set [1] stood at 55.4%. In addition, the death result in data set [3] is reported as “No rat died”.

These data come from US5192774A, “Substituted acetamide derivatives, process for their preparation and antiulcer drug containing same” (Zeria Pharmaceutical Co., Ltd., priority 1988, dated 1993).
